The target in one assay is IDO1 (Homo sapiens, UniProt P14902). The assay can be described thus: IDO1 human whole blood assay. The format is cell-based. Also noted: Human whole blood was drawn in sodium heparin coated tubes from healthy internal donors; from tissue; host or cells: human whole blood from healthy donors, stimulated with LPS and IFNγ. The conditions noted are these: LPS and IFNγ 100 ng/mL, 18 h, kynurenine by LC/MS/MS. As to the method: IDO1Human Whole Blood Assay
Compounds to be tested were serially diluted in ten 3-fold steps in DMSO starting from 10 mM. […] LPS and IFNγ was prepared in RPMI to a 10× of final conc. (1000 ng/mL), final concentration is 100 ng/mL.
Human whole blood was drawn in sodium heparin coated tubes from healthy internal donors. […] of blood was transferred to each of the wells of a v-bottom 96 well plate. […] of compound was transferred from intermediate dilution plate, and incubated for 15 min. 30 μL from stimulants was then transferred to blood and mixed thoroughly. Plate was covered with breathable membrane and incubated at 37° C. for overnight (18 h).
On day 2 isotope labeled standard of kynurenine and tryptophan was made in water at 10× concentration and […] was added to the blood at […] final concentration. The assay plates were centrifuged at 300×G for 10 min with no brake to separate plasma from red blood cells. […] of plasma samples was removed without disturbing red blood cells. Plasma was diluted with RPMI in 1:1 ratio and proteins were precipitated out with two volume of Acetonitrile. The plates was centrifuged at 4000×G for 60 min. 20 mL of supernatant was carefully transferred to a 384 well plate contain 40 mL of 0.1% formic acid in water and analyzed by LC/MS/MS.
LC/MS/MS analyses were performed using Thermo Fisher's LX4-TSQ Quantum Ultra system. This system consists of four Agilent binary high-performance liquid chromatography (HPLC) pumps and a TSQ Quantum Ultra triple quadruple MS/MS instrument. For each sample, […] were injected onto an Atlantis T3 column (2.1 mm×150 mm, […]) from Waters. The mobile phase gradient pumped at 0.8 mL/min was used to elute the analytes from the column at 25° C. […] Mobile phase A consisted of 0.1% formic acid in water. Mobile phase B consisted of 0.1% of formic acid in acetonitrile. Data was acquired in positive mode using a HESI interface. The operational parameters for the TSQ Quantum Ultra instrument were a spray voltage of 4000 V, capillary temperature of 380° C., vaporizer temperature 400° C., shealth gas 60 arbitrary units, Aux gas 20 arbitrary units, tube lens 85 and collision gas 1.2 mTorr. […] The peak area was integrated by Xcalibur Quan software. The ratios between the kynurenine generated in the reaction and 2D6-Kynurenine spiked-in internal standard were used to generate percentage inhibition and IC50 values. Compounds were titrated and IC50′s were calculated by 4 parameter sigmoidal curve fitting formula.

The next assay deals with T1, TDO (Homo sapiens, UniProt P48775).
T1 construct: endogenous in cells; host or cells: SW48 cells (A2780 cells as low-TDO control)
T1 sequence (P48775 whole entry): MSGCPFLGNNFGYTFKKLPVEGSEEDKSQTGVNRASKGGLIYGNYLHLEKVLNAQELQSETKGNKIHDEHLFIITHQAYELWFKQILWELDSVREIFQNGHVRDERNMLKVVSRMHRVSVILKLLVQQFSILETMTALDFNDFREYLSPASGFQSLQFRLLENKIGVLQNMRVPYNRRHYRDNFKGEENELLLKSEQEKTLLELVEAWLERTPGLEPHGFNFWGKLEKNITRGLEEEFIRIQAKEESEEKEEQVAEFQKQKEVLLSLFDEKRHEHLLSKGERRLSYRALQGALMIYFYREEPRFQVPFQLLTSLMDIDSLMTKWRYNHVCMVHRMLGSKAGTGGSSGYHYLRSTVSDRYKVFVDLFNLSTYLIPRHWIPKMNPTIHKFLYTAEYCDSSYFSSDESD
As to the kind of experiment: TDO cellular assay in frozen SW48 cells. The assay is classed as cell-based. The conditions noted are these: 300 uM L-tryptophan, about 48 hours, fluorescence readout.

We go through 1 molecule from patent publication US11111232B2, “Substituted cyclobutylpyridine and cyclobutylpyrimidine compounds as indoleamine 2,3-dioxygenase (IDO) inhibitors” (MERCK SHARP & DOHME CORP., priority 2017, dated 2021).

In general, IC50 refers to the concentration at which inhibition is half-maximal. Lower therefore signals greater potency in that assay.

Sequence of IDO1 (P14902 whole entry): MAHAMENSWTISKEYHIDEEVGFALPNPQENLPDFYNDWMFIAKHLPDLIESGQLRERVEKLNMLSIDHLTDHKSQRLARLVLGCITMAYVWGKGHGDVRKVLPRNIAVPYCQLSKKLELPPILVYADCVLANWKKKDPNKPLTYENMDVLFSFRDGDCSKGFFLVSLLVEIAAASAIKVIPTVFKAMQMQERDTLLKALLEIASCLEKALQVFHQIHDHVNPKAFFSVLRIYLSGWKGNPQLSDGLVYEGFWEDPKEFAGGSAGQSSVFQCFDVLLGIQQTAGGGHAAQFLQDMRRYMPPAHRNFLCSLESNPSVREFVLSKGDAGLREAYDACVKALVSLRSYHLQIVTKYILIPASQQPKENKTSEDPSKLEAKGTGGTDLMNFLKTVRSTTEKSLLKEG

As to `O=C(Nc1ccc(C2(C(=O)Nc3ccc(F)cc3)CCC2)cn1)C1CCCCC1` [Example 15, N-(5-{1-[(4-fluorophenyl)carbamoyl]cyclobutyl}pyridin-2-yl) cyclohexanecarboxamide], the IC50 on IDO1 is 2010 nM; against TDO, at least 10000 nM.
